Data set [1] has as its system Trypanosoma cruzi. The data set can be described thus: Assay 6 Trypanosoma cruzi intracellular assay (infected H9C2 cells). Type of data set: cell-based. The following applies: H9c2, in Rattus norvegicus, 72 h, infected H9C2 rat cardiomyocytes, read-out: pEC50 value against Trypanosoma cruzi (converted). As to the method:
Compounds were dispensed into black 384-well assay plates (Greiner) by acoustic dispensing (LabCyte ECHO). For potency determinations, eleven-point, one in three dilution curves were generated, with a top concentration of 50 μM. H9C2 rat cardiomyocytes cells were dispensed in T225 tissue culture flasks and after 4 hours they were infected during 18 hours with T. cruzi trypomastigotes in the same T225 tissue culture flasks at a multiplicity of infection of 1. Next, any remaining free trypomastigotes were washed away with PBS and the infected H9C2 cells were harvested by trypsinisation. The infected H9C2 cells were then plated into 384-well plates containing the compounds to be tested, at 2500 cells per well in DMEM media with 2% FBS, 1% Penicillin/Streptomocin, 2 mM L-Glutamine, 1 mM Na Pyruvate and 25 mM HEPES. After 72 h incubation at 37° C. in presence of 5% CO2, the plates were fixed and stained with 4% formaldehyde and 2 μM Draq5 for 3 hours at room temperature. The plates were imaged on a Perkin Elmer Opera high-content imaging system using a 20× air objective. Images were analysed using the Acapella building blocks system (Perkin Elmer). The image analysis algorithm first identified the H9C2 nuclei followed by demarcation of the cytoplasm and identification of intracellular amastigotes. This algorithm reported mean number of parasites per H9C2 cell, the percentage of infected H9C2 cells and the total number of H9C2 cells.

The test system of data set [2] is Trypanosoma cruzi. The data set can be described thus: Assay 2 Trypanosoma cruzi intracellular assay (infected Vero cells). Format: cell-based. Conditions: 72 h, read-out: pEC50 value against Trypanosoma cruzi (converted). On the procedure: Compounds were dispensed into black 384-well assay plates (Corning) by acoustic dispensing (LabCyte ECHO). For potency determinations, ten-point one in three dilution curves were generated, with a top concentration of 50 μM. Vero cells were infected overnight with T. cruzi trypomastigotes in T225 tissue culture flasks at a multiplicity of infection of 5. Next, any remaining free trypomastigotes were washed away with serum free MEM media and the infected Vero cells were harvested by trypsinisation. The infected Vero cells were then plated into 384-well plates containing the compounds to be tested, at 4000 cells per well in MEM media with 1% FCS. After 72 h incubation at 37° C. in presence of 5% CO2, the plates were fixed with 4% formaldehyde for 20 minutes at room temperature and stained with 5 μg/ml Hoechst 33342. The plates were imaged on a Perkin Elmer Operetta high-content imaging system using a 20× objective. Images were analysed using the Columbus system (Perkin Elmer). The image analysis algorithm first identified the Vero nuclei followed by demarcation of the cytoplasm and identification of intracellular amastigotes. This algorithm reported mean number of parasites per Vero cell and total number of Vero cells.

Data set [3] is described as follows: Assay 4 solubility assay, ChemiLuminescent Nitrogen Detection (CLND). Format: physicochemical. Conditions: phosphate buffered saline, pH 7.4, aqueous buffer, kinetic from dmso stock, pH 7.4 PBS, from 10 mM DMSO stock, 1 h at room temperature. As to the method: A 10 mM DMSO stock solution of the compound was prepared. Solvents and Buffers Organic solvents of HPLC grade were used. Ultra pure water (Milli-Q grade) was used. Buffers were prepared with ultra pure water and filtered using 0.45μ cameo filters. Aqueous Buffer Solution: Phosphate Buffer Saline (PBS) @ pH 7.4 was prepared from Sigma dry powder packs, P-3813. Each one was diluted to 1 liter with deionised water. The pH was checked before the solution was used II. Procedures. • a) DMSO concentration was measured. DMSO blanks and ondansetron and caffeine standards were added to the plate (column 12, A, B, C, & D for the blanks and E, F, G, & H for the standards). Plates were covered with foil. When the UV and CLND detectors baselines appeared to be stable, the CLND was zeroed. • b) Once DMSO concentration measurements were complete, a filtration plate was prepared from each parent plate by diluting 5 μl of the 10 mM DMSO stock solution to […] with pH7.4 PBS. • c) After the plates were prepared, they were covered with a plate lid and left to incubate for 1 h at room temperature. • d) Sample was filtered using MILLIPORE MultiScreen Solubility (MSSLBPC10) Filtration Plates, to NUNC V well plates. The filter plate was removed and the NUNC plate was sealed with a power seal plate seal. • e) HPLC/CLND instruments were set up and left to equilibrate. Mobile phases (MeOH:H2O 1:1, flow rate: 0.2 ml/min, sensitivity z10, Gain High). The samples were run. • f) The assay curve fit was done by linear regression and solubility values were reported in μM.

In a further data set the test system is Leishmania donovani. The data set can be described thus: Assay 1 intramacrophage Leishmania donovani assay (potency readout). Conditions: amastigotes in PMA-treated THP-1 macrophages, 96 h, average number of amastigotes per cell, minimum threshold 4.3, read-out: pEC50 value against Leishmania donovani (converted). Format: cell-based. On the procedure: The intramacrophage Leishmania assay was performed using a modified version of the method described in De Rycker et al. (Antimicrob Agents Chemother. 2013 July; 57(7):2913-22. Comparison of a high-throughput high-content intracellular Leishmania donovani assay with an axenic amastigote assay. De Rycker M, Hallyburton I, Thomas J, Campbell L, Wyllie S, Joshi D, Cameron S, Gilbert I H, Wyatt P G, Frearson J A, Fairlamb A H, Gray D W.). Procedure: 350 nl of compound was pre-dispensed into 384 well sterile intermediary plates. For single point screening, amphotericin B was added to all wells of column 24 as a positive control (final concentration 2 μM) and DMSO to column 23. For potency determinations, ten-point, one in three dilution curves were created with the highest concentration being 50 μM and on each plate a control curve of amphotericin B was included. Controls were as follows: columns 11 and 12: DMSO, columns 23 and 24: amphotericin B (final concentration 2 μM). To the intermediary plates, 35 μl of THP-1 media was added and plates were shaken for >5 min to ensure complete mixing. THP-1 cells (8,000 per well, 50 μl) were plated into black clear-bottom 384 well plates (Corning) in presence of 20 nM PMA. After 20 min at RT, the plates were incubated at 37° C. under 5% CO2 in a humidified incubator for 75 h. The cells were then washed with […] sterile phosphate buffered saline (PBS) supplemented with 1 mM CaCl2, 0.5 mM MgCl2, 0.1% (w/v) bovine serum albumin (PBS-A) and amastigotes were added to all wells at a multiplicity of infection of 5 (40,000 amastigotes per well). After 40 min at RT, plates were returned to the incubator. Amastigotes were incubated in the presence of THP-1 macrophages for 16 h. Any remaining extracellular amastigotes were subsequently removed with an overflow wash of 1 mL PBS-A per well (wash buffer is being aspirated from the top of the well as it is being dispensed) followed by addition of 25 μl of the compound pre-dilutions using a Fluidx Ipette-pro pipetting station. The final dilution of each compound was 200-fold. Plates were incubated for 96 h and then washed (250 μl PBS-A) and fixed (4% (v/v) formaldehyde-PBS, 30 min, RT). After fixation, the wells were washed with 250 μl PBS, stained (10 μg/mL DAPI, 0.4 μg mL-1 HCS Cellmask Deep Red in PBS+0.1% (v/v) Triton X-100, 30 min, RT) and washed with 250 μl PBS. Finally, PBS+0.05% (v/v) thimerosal was added to the wells, the plates were sealed and imaged on a high-content microscope (GE IN Cell 2000) using a 10× objective. Image analysis was carried out with GE IN Cell Analyzer 1000 Workstation using the “Multi Target Analysis” module. Settings for segmentation were as follows: nuclei: minimum area: 142.384 μm2, sensitivity: 81, method: top-hat; cells: characteristic area: 2500 μm2, sensitivity: 60, method: multiscale top-hat; organelles (amastigotes): granule size 1-3, 3 scales, sensitivity: 90, detection in entire cell. For each well, i) THP-1 cell count (cytotoxicity readout) and ii) average number of amastigotes per cell (potency readout) were calculated, both in terms of pEC50 values.

Data set [4] in a line: Assay 5 Leishmania donovani intracellular assay, cytotoxicity against THP-1 cells. Type of data set: cell-based. The following applies: human, total number of THP-1 cells, minimum threshold 4.3, read-out: cytotoxicity against THP-1 cells, pEC50 value (converted). As to the method:
Compounds were dispensed into black 384-well assay plates (Greiner) by acoustic dispensing (LabCyte ECHO). For potency determinations, eleven-point, one in three dilution curves were generated, with a top concentration of 50 μM. THP-1 human monocytes cells were dispensed in T225 tissue culture flasks and differentiated using 30 nM of PMA, after 24 hours they were infected overnight using Leishmania donovani expressing Green Fluorescent Protein (eGFP) amastigotes in the same T225 tissue culture flasks at a multiplicity of infection of 10. Next, any remaining free amastigotes were washed away with PBS and the infected THP-1 cells were harvested by trypsinisation. The infected cells were then plated into 384-well plates containing the compounds to be tested, at 3000 cells per well in RPMI media with 2% FBS and 25 mM Sodium bicarbonate. After 96 h incubation at 37° C. in presence of 5% CO2, the plates were fixed with 4% formaldehyde for 30 minutes, washed with PBS and stained with 0.1 mg/mL of DAPI for 30 minutes and washed again with PBS. The plates were imaged on a Perkin Elmer Opera high-content imaging system using a 20× air objective with two expositions, one for DAPI stain and other for eGFP. Images were analysed using the Acapella building blocks system (Perkin Elmer). The image analysis algorithm first identified the THP-1 nuclei followed by demarcation of the cytoplasm and identification of intracellular amastigotes. This algorithm reported mean number of parasites per THP-1 cell, the percentage of infected THP-1 cells and the total number of THP-1 cells.

Each structure is given as a SMILES string. Values after ≈ are worked out from the molar mass of the structure shown.

By solubility is commonly meant how much of the substance goes into solution per volume. Low readings indicate little dissolved substance, high ones much dissolved substance. As for `O=C(Nc1ccc(F)c(-c2cn3nc(N4CCCC4)cnc3n2)c1)N1CCCC1` [Example 3, N-(4-fluoro-3-(2-(pyrrolidin-1-yl)imidazo[1,2-b][1,2,4]triazin-6-yl)phenyl)pyrrolidine-1-carboxamide], the results for the EC50 in the data set on Trypanosoma cruzi [1] and in the data set with Trypanosoma cruzi [2] were 0.00501 to 0.631 µM and 0.02 to 0.251 µM, respectively. Also, in data set [3], the solubility at 1 h lay in the range of 10 to 83 µM (≈ 3.95 to 32.8 µg/mL).
The corresponding values for `O=C(Nc1ccc(F)c(-c2cn3nc(N4CCCCC4)cnc3n2)c1)N1CCCC1` [Example 4, N-(4-fluoro-3-(2-(piperidin-1-yl)imidazo[1,2-b][1,2,4]triazin-6-yl)phenyl)pyrrolidine-1-carboxamide] are 0.00501 to 0.631 µM, 0.02 to 0.251 µM and 10 to 83 µM (≈ 4.09 to 34 µg/mL).
For the compound `Cc1nn(C)cc1S(=O)(=O)Nc1ccc(F)c(-c2cn3nc(N4CCOCC4)cnc3n2)c1` [Example 34, N-(4-fluoro-3-(2-morpholinoimidazo [1,2-b][1,2,4]triazin-6-yl)phenyl)-1,3-dimethyl-1H-pyrazole-4-sulfonamide], the EC50 with Trypanosoma cruzi [1] was 10 to 39.8 µM; with Leishmania donovani, over 50.1 µM; in the data set on Trypanosoma cruzi [2], 25.1 µM.
As for `CN(C)Cc1ccc(-c2cnc3nc(-c4cc(NC(=O)N5CCCC5)ccc4F)cn3n2)cc1` [Example 37, N-(3-(2-(4-((dimethyl-amino)methyl)phenyl)imidazo[1,2-b][1,2,4]triazin-6-yl)-4-fluoro-phenyl)pyrrolidine-1-carboxamide], in the data set with Trypanosoma cruzi [1], the EC50 was 0.00501 to 0.631 µM. The EC50 at 96 h in data set [4] is 2.51 to 10 µM. For the same compound, in data set [3], the solubility at 1 h is 10 to 83 µM (≈ 4.6 to 38.1 µg/mL).
Consider `CN(C)Cc1cccc(-c2cnc3nc(-c4cc(NC(=O)N5CCCC5)ccc4F)cn3n2)c1` [Example 41, N-(3-(2-(3-((dimethyl-amino)methyl)phenyl)imidazo[1,2-b][1,2,4]triazin-6-yl)-4-fluorophenyl)pyrrolidine-1-carboxamide], for which, in the data set on Trypanosoma cruzi [1], the EC50 was 0.00501 to 0.631 µM. Also, the EC50 at 96 h in data set [4] was 2.51 to 10 µM. The same compound displayed a solubility at 1 h in data set [3] of 100 to 416 µM (≈ 46 to 191 µg/mL).
On to `CNCc1cccc(-c2cnc3nc(-c4cc(NC(=O)N5CCCC5)ccc4F)cn3n2)c1` [Example 44, N-(4-fluoro-3-(2-(3-((methylamino)methyl)phenyl)imidazo[1,2-b] [1,2,4]triazin-6-yl)phenyl) pyrrolidine-1-carboxamide], for which, in the data set with Trypanosoma cruzi [1], the EC50 was 0.00501 to 0.631 µM. Moreover, the EC50 at 96 h in data set [4] was 2.51 to 10 µM. Further, the solubility at 1 h in data set [3] lay within 100 to 416 µM (≈ 44.6 to 185 µg/mL).
For the compound `CC(C)OC(=O)Nc1ccc(F)c(-c2cn3nc(N4CCOCC4)cnc3n2)c1` [Example 48, isopropyl (4-fluoro-3-(2-morpholinoimidazo[1,2-b] [1,2,4]triazin-6-yl)phenyl)carbamate], in the data set with Trypanosoma cruzi [1], the EC50 is 0.00501 to 0.631 µM. In addition, the EC50 at 96 h in data set [4] is 2.51 to 10 µM. This compound registered a solubility at 1 h in data set [3] of 10 to 83 µM (≈ 4 to 33.2 µg/mL).

For the origin of these results see US10065965B2, “Imidazo[1,2-B][1,2,4]triazine derivatives as antiparasitic agents” (GlaxoSmithKline Intellectual Property Development Limited, priority 2015, dated 2018).
